# From patent publication US9028856B2, “Synergistic pesticide compositions” (priority 2008, dated 2015)
# Legend:
# [1] = system: Red Imported Fire ant (RIFA), Solenopsis invicta; assay: Knockdown/mortality of ant workers under continuous exposure on treated glazed tile; type: in vivo; settings: Table 72, β-cyfluthrin study, Red Imported Fire ant; for Average % Mortality after 15 min: glazed tile, continuous exposure, adjuvant = Compound A 1% + Compound B 0.5%
# Excerpt: (§1) Treatments were allowed to dry overnight. […] Treatments were replicated minimum three times.
# (§2) Treatments were allowed to dry overnight. […] Treatments were replicated a minimum of three times.
# Aedes aegypti mosquito = assay: USDA Petri Dish Method, 3 min exposure to treated glazed tile; type: in vivo; settings: Table 33, thiamethoxam/adjuvant in acetone, glazed tile, 3 min exposure
# Protocol: (§3) Treatments were allowed to dry overnight. USDA Petri Dish Method was used as initial screening protocol. Twenty, 4-6 day old female Aedes aegypti mosquitoes were exposed to each treatment for 3 minutes and then moved to a clean untreated white paper index card. Treatments were replicated a minimum of three times. Mosquito knockdown was evaluated at various intervals through 7 hours after exposure. A small cotton ball soaked in sucrose solution was added on the screen top of the petri-dish as a drinking source. Mortality was evaluated at 24 hours after exposure.
# MATERIALS AND METHODS: Solutions of resmethrin at 1 and 0.5% AI were prepared with and without adjuvant in acetone. […] USDA Petri Dish Method was used as initial screening protocol. Twenty, 4-6 day old female Aedes aegypti mosquitoes were exposed to each treatment for 3 minutes and then moved to a clean untreated white paper index card. Treatments were replicated a minimum of three times. Mosquito knockdown was evaluated at 3 minute intervals for the first 15 minutes and then at 5 minute intervals for the remainder of an hour. A small cotton ball soaked in sucrose solution was added on the screen top of the petri-dish as a drinking source. Mortality was evaluated at 24 hours after exposure.
# as §3, with “6” for “7”
# as §3, with “5 minute” for “various”, “for the first hour and then at 2, 4 and 6 hours.” for “through 7 hours after exposure.”
# Treatments were allowed to dry overnight. USDA Petri Dish Method was used as initial screening protocol. Twenty, 4-6 day old female Aedes aegypti mosquitoes were exposed to each treatment for 3 minutes and then moved to a clean untreated white paper index card. Treatments were replicated a minimum of three times. Mosquito knockdown was evaluated at 3-5 minute intervals for the first hour. A small cotton ball soaked in sucrose solution was then added on the screen top of the petri-dish as a drinking source. Mortality was evaluated at 24 hours after exposure.
# as §3, with “intervals through 2 hours after” for “intervals through 7 hours after”, “solution was then added on” for “solution was added on”
# Treatments were allowed to dry overnight. USDA Petri Dish Method was used as initial screening protocol. Twenty, 4-6 day old female Aedes aegypti mosquitoes were exposed to each treatment for 3 minutes and then moved to a clean untreated white paper index card. Treatments were replicated a minimum of three times. Mosquito knockdown was evaluated at various hourly intervals. […]
# [2] = system: susceptible/normal German cockroach (Monheim strain), Blattella germanica; assay: Knockdown/mortality of male cockroaches under continuous exposure on treated glazed tile; type: in vivo; settings: Table 36, thiamethoxam/adjuvant in acetone, glazed tile, Monheim strain
# Protocol: Treatments were allowed to dry overnight. […] Treatments were replicated a minimum of three times. […]
# Treatments were allowed to dry overnight. […] Treatments were replicated a minimum of three times. Cockroach knockdown/mortality was evaluated at 5 minute intervals for the first 60 minutes after exposure and then at 2, 18 and 24 hours.
# [3] = system: Argentine ant, Linepithema humile; assay: Knockdown/mortality of ant workers under continuous exposure on treated glazed tile; settings: for Average % Mortality after 15 min / Average % Mortality after 3 hr / Average % Mortality after 21 hr: Table 34, thiamethoxam/adjuvant in acetone; for toxicity / efficacy of the substance alone (summary in words): Argentine ant, treated glazed tile
# Protocol: (§4) Solutions of imidacloprid at 0.5% AI were prepared with and without methyl oleate @0.1, 1.0 and 5.0% in acetone. Treatments were applied using a micropipette to dispense 1 ml of test solution evenly on a 6″×6″ glazed tile. Actual coverage was about 5″×5″ (or 161 cm^2) for easy handling. Treatments were allowed to dry overnight. Ten Argentine ant workers were placed within a fluon or talc-coated PVC ring (φ7.6 cm×H 5.1 cm) under continuous exposure. A small vial filled with a cotton ball soaked in water was added as a drinking source after 3 hours. Treatments were replicated a minimum of three times. Evaluations for ant knockdown/mortality were made at various intervals and at 24 hours after exposure.
# as §4, with “MATERIALS AND METHODS: Solutions” for “Solutions”, “linoleate” for “oleate”
# as §4, with “MATERIALS AND METHODS: Solutions of” for “Solutions of”, “without methyl palmitate @0.1, 1.0” for “without methyl oleate @0.1, 1.0”, “after exposure. […]” for “after exposure.”
# [4] = system: Odorous House ant, Tapinoma sessile; assay: as above; type: in vivo; settings: Table 35, thiamethoxam/adjuvant in acetone, glazed tile
# Excerpt: Actual coverage was about 5″×5″ (or 161 cm2) for easy handling. Treatments were allowed to dry overnight. […] Treatments were replicated minimum three times.
# as §1, §2
# Treatments were allowed to dry overnight. […] Treatments were replicated minimum of three times. […] The results are shown in FIG. 84 (No adjuvant alone treatment was performed).
# [5] = system: bait averse/resistant German cockroach (T-164 strain); assay: Knockdown/mortality of male cockroaches under continuous exposure on treated glazed tile; type: in vivo, Blattella germanica; settings: for toxicity / efficacy of the substance alone (summary in words): German cockroach T-164, treated glazed tile
# [6] = Table 10 (Ex. 7), glazed tile, continuous exposure, listed as Methyl Linoleate (1%)
# [7] = Table 10 (Ex. 7), glazed tile, continuous exposure, listed as Methyl Linoleate (5%)
compound,measurement,setting,value
CC1(C)C(C=C(Cl)Cl)C1C(=O)OC(C#N)c1ccc(F)c(Oc2ccccc2)c1 (stereo not drawn) [β-cyfluthrin (.001%)],Average % Mortality after 15 min,[1],39%
same,Average % Mortality after 30 min,[1],100%
same,Average % Mortality after 60 min,[1],100%
same,Average % Mortality after 24 hr,[1],100%
CN1COCN(Cc2cnc(Cl)s2)/C1=N\[N+](=O)[O-] [Thiamethoxam (0.01%)],Average % Knockdown & Mortality after 2 hr,Aedes aegypti mosquito,0%
same,Average % Knockdown & Mortality after 3 hr,Aedes aegypti mosquito,0%
same,Average % Knockdown & Mortality after 7 hr,Aedes aegypti mosquito,0%
same,Average % Knockdown & Mortality after 24 hr,Aedes aegypti mosquito,0%
same,Average % Knockdown & Mortality after 30 min,[2],13%
same,Average % Knockdown & Mortality after 60 min,[2],67%
same,Average % Knockdown & Mortality after 90 min,[2],87%
same,Average % Knockdown & Mortality after 3 hr,[2],100%
same,Average % Knockdown & Mortality after 24 hr,[2],100%
same,Average % Mortality after 15 min,[3]; glazed tile,0%
same,Average % Mortality after 3 hr,[3]; glazed tile,19%
same,Average % Mortality after 21 hr,[3]; glazed tile,100%
same,Average % Knockdown & Mortality after 15 min,[4],0%
same,Average % Knockdown & Mortality after 30 min,[4],0%
same,Average % Knockdown & Mortality after 60 min,[4],0%
same,Average % Knockdown & Mortality after 2 hr,[4],9%
same,Average % Knockdown & Mortality after 20 hr,[4],71%
CC1(C)C(C=C(Cl)Cl)C1C(=O)OC(C#N)c1ccc(F)c(Oc2ccccc2)c1 (stereo not drawn) [β-cyfluthrin (.005%)],Average % Mortality after 15 min,[1],100%
same,Average % Mortality after 30 min,[1],100%
same,Average % Mortality after 60 min,[1],100%
same,Average % Mortality after 24 hr,[1],100%
CN1COCN(Cc2cnc(Cl)s2)/C1=N\[N+](=O)[O-] [Thiamethoxam (1%)],Average % Knockdown & Mortality after 2 hr,Aedes aegypti mosquito,2%
same,Average % Knockdown & Mortality after 3 hr,Aedes aegypti mosquito,2%
same,Average % Knockdown & Mortality after 7 hr,Aedes aegypti mosquito,4%
same,Average % Knockdown & Mortality after 24 hr,Aedes aegypti mosquito,4%
same,Average % Knockdown & Mortality after 30 min,[2],13%
same,Average % Knockdown & Mortality after 60 min,[2],73%
same,Average % Knockdown & Mortality after 90 min,[2],80%
same,Average % Knockdown & Mortality after 3 hr,[2],93%
same,Average % Knockdown & Mortality after 24 hr,[2],100%
same,Average % Mortality after 15 min,[3]; glazed tile,3%
same,Average % Mortality after 3 hr,[3]; glazed tile,34%
same,Average % Mortality after 21 hr,[3]; glazed tile,100%
same,Average % Knockdown & Mortality after 15 min,[4],0%
same,Average % Knockdown & Mortality after 30 min,[4],0%
same,Average % Knockdown & Mortality after 60 min,[4],0%
same,Average % Knockdown & Mortality after 2 hr,[4],21%
same,Average % Knockdown & Mortality after 20 hr,[4],65%
"CCCCCCCCCCCCCCCC(=O)OC [Methyl palmitate, methyl palmitate]",toxicity / efficacy of the substance alone (summary in words),[5],not toxic
same,Average % Knockdown & Mortality after 4 hr,"[5]; Table 13 (Ex. 10), glazed tile, continuous exposure",0%
same,toxicity / efficacy of the substance alone (summary in words),[3],not toxic
same,Average % Knockdown & Mortality after 3 hr,"[3]; Table 12 (Ex. 9), glazed tile, continuous exposure",0%
same,Average % Knockdown & Mortality after 7 hr,"[3]; Table 12 (Ex. 9), glazed tile, continuous exposure, listed as Methyl Palmitate (1%)",0%
same,Average % Knockdown & Mortality after 7 hr,"[3]; Table 12 (Ex. 9), glazed tile, continuous exposure, listed as Methyl Palmitate (5%)",7%
"CCCCC/C=C\C/C=C\CCCCCCCC(=O)OC [Methyl linoleate, methyl linoleate]",toxicity / efficacy of the substance alone (summary in words),[5],toxic
same,Average % Knockdown & Mortality after 15 min,"[5]; Table 11 (Ex. 8), glazed tile, continuous exposure",0%
same,toxicity / efficacy of the substance alone (summary in words),[3],at high rates (1 & 5%) was toxic
same,Average % Knockdown & Mortality after 4 hr,"[3]; Table 10 (Ex. 7), glazed tile, continuous exposure, listed as Methyl Linoleate (0.1%)",0%
same,Average % Knockdown & Mortality after 15 min,[3]; [6],0%
same,Average % Knockdown & Mortality after 4 hr,[3]; [6],7%
same,Average % Knockdown & Mortality after 15 min,[3]; [7],7%
same,Average % Knockdown & Mortality after 4 hr,[3]; [7],67%
CCCCOC(=O)CCCCCCCCC(=O)OCCCC [DBS (0.1%)],Average % Knockdown & Mortality after 45 min,"[5]; 45 min, Table 24, imidacloprid/dibutyl sebacate (DBS) in acetone, glazed tile, T-164 strain",0%
same,Average % Knockdown & Mortality after 2 hr,"[3]; Table 25, imidacloprid/dibutyl sebacate (DBS) in acetone, glazed tile",0%
same,Average % Knockdown & Mortality after 4 hr,"[3]; 4 hr, Table 25, imidacloprid/dibutyl sebacate (DBS) in acetone, glazed tile",9%
ClC(c1ccccc1)(c1ccccc1)c1ccccc1 [Tritylchloride (5%)],Average % Knockdown & Mortality after 3 hr,"[5]; 3 hr, Table 23, imidacloprid/tritylchloride in acetone, glazed tile, T-164 strain",0%
same,Average % Knockdown & Mortality after 2 hr,"[3]; Table 22, imidacloprid/tritylchloride in acetone, glazed tile, continuous exposure",0%
same,Average % Knockdown & Mortality after 5 hr,"[3]; 5 hr, Table 22, imidacloprid/tritylchloride in acetone, glazed tile, continuous exposure",0%
